Measurements reported in ChEMBL document CHEMBL5500337, “Synthesis and anti-liver fibrosis activity of imidazole and thiazole compounds containing amino acids” (Eur J Med Chem, 2024).
Active and inactive are the calls of the source. No cut-off for these calls is given here.

Columns and labels:
[1] = target: Mitogen-activated protein kinase 14 (Homo sapiens, UniProt Q16539); assay: Inhibition of human recombinant p38alpha expressed in Escherichia coli incubated for 60 mins in presence of ATP by microplate scintillation counter
Sequence of Mitogen-activated protein kinase 14 (Q16539 whole entry): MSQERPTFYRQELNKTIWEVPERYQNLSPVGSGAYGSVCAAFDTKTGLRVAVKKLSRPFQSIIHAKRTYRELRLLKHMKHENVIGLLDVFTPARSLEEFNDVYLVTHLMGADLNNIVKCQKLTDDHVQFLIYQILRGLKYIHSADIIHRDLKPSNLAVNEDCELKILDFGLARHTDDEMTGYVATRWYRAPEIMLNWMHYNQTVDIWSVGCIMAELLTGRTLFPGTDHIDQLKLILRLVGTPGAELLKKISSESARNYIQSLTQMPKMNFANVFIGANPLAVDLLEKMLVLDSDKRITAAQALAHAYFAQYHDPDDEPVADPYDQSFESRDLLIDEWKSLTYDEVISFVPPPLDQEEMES

[2] = Oral bioavailability in male Sprague-Dawley rat at 15 mg/kg measured after 8 hrs by UPLC-MS/MS analysis; format: ADME, organism-based; details: in vivo
[3] = Clearance in male Sprague-Dawley rat at 4 mg/kg, iv measured after 8 hrs by UPLC-MS/MS analysis; format: ADME, organism-based; details: in vivo
[4] = system: LX-2; assay: Anti-fibrotic activity in human LX-2 cells assessed as reduction in collagen I protein expression at 20 uM preincubated with compound for 1 hrs followed by TGFbeta addition and measured after 24 hrs by Western blot analysis; format: functional, cell-based; details: time 25.0 hrs
[5] = MRT (0 to t) in male Sprague-Dawley rat at 15 mg/kg, po measured after 8 hrs by UPLC-MS/MS analysis; format: ADME, organism-based; details: in vivo
[6] = Cmax in male Sprague-Dawley rat at 4 mg/kg, iv measured after 8 hrs by UPLC-MS/MS analysis; format: ADME, organism-based; details: in vivo
[7] = system: LX-2; assay: Anti-fibrotic activity in human LX-2 cells assessed as inhibition of alpha-SMA expression preincubated with compound for 1 hrs followed by TGFbeta addition and measured after 24 hrs by DAPI staining based confocal laser scanning microscopic analysis; format: functional, cell-based; details: dose 5-20 µM, time 25.0 hrs
[8] = Clearance in male Sprague-Dawley rat at 15 mg/kg, po measured after 8 hrs by UPLC-MS/MS analysis; format: ADME, organism-based; details: in vivo
[9] = Half-life in male Sprague-Dawley rat at 4 mg/kg, iv measured after 8 hrs by UPLC-MS/MS analysis; format: ADME, organism-based; details: in vivo
[10] = system: LX-2; assay: Anti-fibrotic activity in human LX-2 cells assessed as reduction in alpha-SMA protein expression at 20 uM preincubated with compound for 1 hrs followed by TGFbeta addition and measured after 24 hrs by Western blot analysis; format: functional, cell-based; details: time 25.0 hrs
[11] = AUC (0 to infinity) in male Sprague-Dawley rat at 4 mg/kg, iv measured after 8 hrs by UPLC-MS/MS analysis; format: ADME, organism-based; details: in vivo
[12] = AUC (0 to t) in male Sprague-Dawley rat at 15 mg/kg, po measured after 8 hrs by UPLC-MS/MS analysis; format: ADME, organism-based; details: in vivo
[13] = Cmax in male Sprague-Dawley rat at 15 mg/kg, po measured after 8 hrs by UPLC-MS/MS analysis; format: ADME, organism-based; details: in vivo
[14] = Half-life in male Sprague-Dawley rat at 15 mg/kg, po measured after 8 hrs by UPLC-MS/MS analysis; format: ADME, organism-based; details: in vivo
[15] = system: LX-2; assay: Anti-fibrotic activity in human LX-2 cells assessed as inhibition of alpha-SMA mRNA expression at 5 uM preincubated with compound for 1 hrs followed by TGFbeta addition and measured after 24 hrs by RT-PCR analysis; format: functional, cell-based; details: time 25.0 hrs
[16] = AUC (0 to infinity) in male Sprague-Dawley rat at 15 mg/kg, po measured after 8 hrs by UPLC-MS/MS analysis; format: ADME, organism-based; details: in vivo
[17] = Tmax in male Sprague-Dawley rat at 15 mg/kg, po measured after 8 hrs by UPLC-MS/MS analysis; format: ADME, organism-based; details: in vivo
[18] = system: LX-2; assay: Cytotoxicity against human LX-2 cells assessed as reduction in cell viability upto 50 uM incubated for 24 hrs by MTT assay; format: toxicity, cell-based; details: lx-2, 24 h
[19] = MRT (0 to t) in male Sprague-Dawley rat at 4 mg/kg, iv measured after 8 hrs by UPLC-MS/MS analysis; format: ADME, organism-based; details: in vivo
[20] = AUC (0 to t) in male Sprague-Dawley rat at 4 mg/kg, iv measured after 8 hrs by UPLC-MS/MS analysis; format: ADME, organism-based; details: in vivo
[21] = Tmax in male Sprague-Dawley rat at 4 mg/kg, iv measured after 8 hrs by UPLC-MS/MS analysis; format: ADME, organism-based; details: in vivo
[22] = system: LX-2; assay: Cytotoxicity against human LX-2 cells assessed as reduction in cell viability upto 100 uM incubated for 24 hrs by MTT assay; format: toxicity, cell-based; details: lx-2, 24 h
[23] = system: LX-2; assay: Cytotoxicity against human LX-2 cells assessed as reduction in cell viability at 6.25 uM incubated for 24 hrs by MTT assay; format: toxicity, cell-based; details: lx-2, 24 h
[24] = system: LX-2; assay: Cytotoxicity against human LX-2 cells assessed as reduction in cell viability at 100 uM incubated for 24 hrs by MTT assay; format: toxicity, cell-based; details: lx-2, 24 h
[25] = system: LX-2; assay: Anti-fibrotic activity in human LX-2 cells assessed as reduction in alpha-SMA protein expression at 5 uM preincubated with compound for 1 hrs followed by TGFbeta addition and measured after 24 hrs by Western blot analysis; format: functional, cell-based; details: time 25.0 hrs

Molecule `Cc1cccc(-c2[nH]c(CNC(=O)[C@@H](N)CC(C)C)nc2-c2ccc3ncnn3c2)n1` has an IC50 [1] greater than 3 µM.
`Cc1cccc(-c2nc(NC(=S)[C@@H](N)CC(C)C)sc2-c2ccc3ncnn3c2)n1` gave an IC50 [1] greater than 1 µM.
Molecule `Cc1cccc(-c2nc(NC(=O)[C@H](C)N)sc2-c2ccc3ncnn3c2)n1` has an IC50 [1] greater than 1 µM.
In the case of `Cc1cccc(-c2[nH]c(CNC(=O)[C@H](N)Cc3ccccc3)nc2-c2ccc3ncnn3c2)n1`, the F [2] is reported as 2.59%, the clearance [3] is reported as 5.23 mL/min/kg and the Activity [4] is reported as “Active”. The MRT last at 8 h [5] was 2.79 h, the Cmax [6] was 43100 ng/mL and the Activity [7] was “Dose-Dependent Effect”. The CL/F [8] was 109 mL/min/kg, the half-life [9] was 2.24 h and the Activity [10] was “Active”. The AUC [11] was 12802 ng·h/mL, the AUC(0-t) at 8 h [12] was 1220 ng·h/mL and the Cmax [13] was 1390 ng/mL. For the same molecule, the half-life [14] was 9.14 h, the Activity [15] was “Active” and the AUC [16] was 2667 ng·h/mL. For the same molecule, the Tmax [17] was 6.6 min, the Activity [18] was “Non-Toxic” and the MRT last at 8 h [19] was 1.01 h. For the same molecule, the AUC(0-t) at 8 h [20] was 12500 ng·h/mL and the Tmax [21] was 0 h.
In the case of `Cc1cccc(-c2nc(NC(=O)[C@@H](N)CC(C)C)sc2-c2ccc3ncnn3c2)n1`, the Activity [4] is reported as “Active”, the Activity [10] is reported as “Active” and the Activity [22] is reported as “Non-Toxic”. The IC50 [1] was greater than 1 µM and the Activity [15] was “Active”.
With `Cc1cccc(-c2nc(NC(=O)[C@@H](N)Cc3ccccc3)sc2-c2ccc3ncnn3c2)n1` the IC50 [1] was greater than 3 µM.
`Cc1cccc(-c2[nH]c(CNC(=O)[C@H](N)CC(C)C)nc2-c2ccc3ncnn3c2)n1` showed an IC50 [1] greater than 3 µM.
Molecule `Cc1cccc(-c2[nH]c(CNC(=O)[C@H](C)N)nc2-c2ccc3ncnn3c2)n1` has an IC50 [1] greater than 3 µM.
In the case of `Cc1cccc(-c2nc(NC(=O)[C@H]3CCCCN3)sc2-c2ccc3ncnn3c2)n1`, the IC50 [1] is reported as greater than 3 µM.
`Cc1cccc(-c2[nH]c(CNC(=S)[C@@H](N)Cc3ccccc3)nc2-c2ccc3ncnn3c2)n1` showed an IC50 [1] greater than 3 µM.
`Cc1cccc(-c2[nH]c(CNC(=S)[C@H](N)Cc3ccccc3)nc2-c2ccc3ncnn3c2)n1` gave an IC50 [1] greater than 1 µM.
For `Cc1cccc(-c2nc(NC(=O)[C@H](N)CC(C)C)sc2-c2ccc3ncnn3c2)n1`, the Activity [4] was “Active”, the Activity [10] was “Active” and the Activity [23] was “Non-Toxic”. For the same molecule, the IC50 [1] was greater than 3 µM, the Activity [15] was “Active” and the Activity [24] was “Toxic”.
`Cc1cccc(-c2nc(NC(=O)[C@H](N)Cc3ccccc3)sc2-c2ccc3ncnn3c2)n1` showed an IC50 [1] greater than 3 µM.
In the case of `Cc1cccc(-c2nn3c(c2-c2ccnc4ccc(C(N)=O)cc24)CCC3)n1`, the Activity [25] is reported as “Active”.
In the case of `Cc1cccc(-c2[nH]c(CNC(=O)[C@H]3CCCCN3)nc2-c2ccc3ncnn3c2)n1`, the IC50 [1] is reported as greater than 1 µM.
Work on `Cc1cccc(-c2nc(NC(=S)[C@H](N)CC(C)C)sc2-c2ccc3ncnn3c2)n1` yielded an IC50 [1] greater than 1 µM.
Work on `Cc1cccc(-c2nc(NC(=O)[C@@H]3CCCCN3)sc2-c2ccc3ncnn3c2)n1` yielded an IC50 [1] greater than 3 µM.
For `Cc1cccc(-c2[nH]c(CNC(=O)[C@@H]3CCCCN3)nc2-c2ccc3ncnn3c2)n1`, the IC50 [1] was greater than 3 µM.
